# Where a name gives a salt, the structure may show the parent alone.
# Target: cGMP-specific 3',5'-cyclic phosphodiesterase (Cavia porcellus)
# Test: Inhibition in vitro of Phosphodiesterase 5 isolated from guinea pig lung
row,SMILES,IC50
1,"COc1cc2cc(CO)c(CO)c(-c3cc[nH]c(=O)c3)c2cc1OC [4-(2,3-Bis-hydroxymethyl-6,7-dimethoxy-naphthalen-1-yl)-3H-pyridin-2-one]",10 µM
2,"COc1cc2cc(CO)c(CO)c(-c3cc(OC)c(OC)c(C(=O)N(C)C)c3)c2cc1OC [5-(2,3-Bis-hydroxymethyl-6,7-dimethoxy-naphthalen-1-yl)-2,3-dimethoxy-N,N-dimethyl-benzamide]",30 µM
3,"COc1cc2cc(CO)c(CO)cc2cc1OC [(3-Hydroxymethyl-6,7-dimethoxy-naphthalen-2-yl)-methanol]",> 100 µM
4,"COc1cc2cc(CO)c(CO)c(-c3cc(OC)c(OC)c(OC)c3)c2cc1OC [[3-Hydroxymethyl-6,7-dimethoxy-1-(3,4,5-trimethoxy-phenyl)-naphthalen-2-yl]-methanol]",3 µM
5,"COc1cc(-c2c(CO)c(CO)cc3cc4c(cc23)OCO4)cc(OC)c1OC [[7-Hydroxymethyl-5-(3,4,5-trimethoxy-phenyl)-naphtho[2,3-d][1,3]dioxol-6-yl]-methanol]",> 30 µM

# Continued by falling IC50, values first:
row,IC50,SMILES
1,53 µM,"COc1cc2cc(CO)c(CO)c(-c3cc(OC)c(OC)c(S(C)(=O)=O)c3)c2cc1OC [[3-Hydroxymethyl-1-(3-methanesulfonyl-4,5-dimethoxy-phenyl)-6,7-dimethoxy-naphthalen-2-yl]-methanol]"
2,30 µM,"CCOc1cc2cc(CO)c(CO)c(-c3cc(N)c(OC)c(OC)c3)c2cc1OCC [[1-(3-Amino-4,5-dimethoxy-phenyl)-6,7-diethoxy-3-hydroxymethyl-naphthalen-2-yl]-methanol; hydrochloride]"
3,20 µM,"COc1cc2cc(CO)c(CO)c(Cc3cc(OC)c(OC)c(OC)c3)c2cc1OC [[3-Hydroxymethyl-6,7-dimethoxy-1-(3,4,5-trimethoxy-benzyl)-naphthalen-2-yl]-methanol]"
4,8 µM,"COc1ccc2c(-c3cc(OC)c(OC)c(OC)c3)c(CO)c(CO)cc2c1 [[3-Hydroxymethyl-6-methoxy-1-(3,4,5-trimethoxy-phenyl)-naphthalen-2-yl]-methanol]"

# Source: BindingDB's records for doi:10.1021/jm9509096 (1996)
